The test system of one experiment is MON cells. Description: Combination therapy viability assay, MON. The class given is cell-based. The note with it: Homo sapiens, cytotoxic drug alone, 72 hours, read-out: IC50 of compound 2.
A further experiment has as its system BT-16 cells. Put plainly: Combination therapy viability assay, BT-16. The class given is cell-based. Conditions: Homo sapiens, cytotoxic drug alone, 72 hours, read-out: IC50 of compound 2.
Another experiment deals with DAOY cells. Description: Combination therapy viability assay, DAOY. Conditions: Homo sapiens, 72 h, read-out: IC50 of compound 2.

Each structure is given as a SMILES string.

Regarding `COc1cccc2c1C(=O)c1c(O)c3c(c(O)c1C2=O)C[C@@](O)(C(=O)CO)C[C@@H]3O[C@H]1C[C@H](N)[C@H](O)[C@H](C)O1` [Doxorubicin, doxorubicin], the 50% inhibitory concentration (IC50) is 134 nM in the experiment on MON cells, 1430 nM in the experiment with BT-16 cells and 263 nM in the experiment on DAOY cells.

For the compound `COc1cc([C@@H]2c3cc4c(cc3[C@@H](O[C@@H]3O[C@@H]5CO[C@@H](C)O[C@H]5[C@H](O)[C@H]3O)[C@H]3COC(=O)[C@H]23)OCO4)cc(OC)c1O` [Etoposide, etoposide], the figures for the IC50 in the experiment with MON cells, in the experiment on BT-16 cells and in the experiment on DAOY cells were 967 nM, 800 nM and 495 nM, respectively.

Source of the values: PMC5762315, “Inhibition of polo-like kinase 4 (PLK4): a new therapeutic option for rhabdoid tumors and pediatric medulloblastoma” (Oncotarget, 2017).
